From patent publication US20250368625A1, “PIPERAZINES” (Grünenthal GmbH, priority 2024, published 2025)

Molecular target: T1, human SSTR4 (Homo sapiens, UniProt P31391)
T1 construct: expressed in transfected cells; host or cells: CHO-K1
Assay: hSSTR4 cAMP assay (cAMP accumulation, LANCE Ultra cAMP kit, CHO-K1 human SSTR4 Gi cell line)
Format: cell-based
Conditions: functional agonism, forskolin 10 μM stimulated CHO-K1 human SSTR4 Gi cells, 30 min at 25° C., at least duplicate, averaged; read-out: hSSTR4 EC50
Experimental: cAMP accumulation assay using a CHO-K1 human SSTR4 Gi cell line.
Quantification of intracellular cAMP was performed using the LANCE Ultra cAMP assay kit from Revvity according to the manufacturer's instructions. CHO-K1 human SSTR4 Gi cell were either seeded in a density of 3K cells per well into a 384 well plate and incubated at 37° C. and 5% CO2 for 18-20 h or a stock of frozen cells were defrosted and seeded in a density of 5K cells per well without any further cultivation directly prior to the assay in a total volume of 5 μL in stimulation buffer. For pre-cultured cells, medium was replaced with 5 μL stimulation buffer before the assay. Cells were then stimulated with forskolin (final concentration 10 μM) and test compound (SSTR4 agonist) in increasing concentrations in duplicates for 30 min at 25° C. After stimulation, cells were lysed by addition of 10 μL of detection buffer (provided with the kit) and cell lysates were further diluted to ensure final cAMP concentrations fitted well into the dynamic range of the test kit. 10 μL of the diluted lysates were then added to respective wells of an OptiPlate-384 microplate. Thereafter, 5 μL of 4× Eu-cAMP tracer working solution was added, followed by addition of 5 μL of ULight-anti-cAMP working solution. The plate was then incubated for 1 h at 25° C. before reading on a TR-FRET microplate instrument. Data were normalized to cAMP high (forskolin only) and low control (forskolin+100 nM SST14) before fitting to a 4-Paramter logistic function.
All data was generated according to the cAMP assay conditions described above in at least duplicate and results are averaged and rounded to two significant figures.

T1 sequence (P31391 whole entry): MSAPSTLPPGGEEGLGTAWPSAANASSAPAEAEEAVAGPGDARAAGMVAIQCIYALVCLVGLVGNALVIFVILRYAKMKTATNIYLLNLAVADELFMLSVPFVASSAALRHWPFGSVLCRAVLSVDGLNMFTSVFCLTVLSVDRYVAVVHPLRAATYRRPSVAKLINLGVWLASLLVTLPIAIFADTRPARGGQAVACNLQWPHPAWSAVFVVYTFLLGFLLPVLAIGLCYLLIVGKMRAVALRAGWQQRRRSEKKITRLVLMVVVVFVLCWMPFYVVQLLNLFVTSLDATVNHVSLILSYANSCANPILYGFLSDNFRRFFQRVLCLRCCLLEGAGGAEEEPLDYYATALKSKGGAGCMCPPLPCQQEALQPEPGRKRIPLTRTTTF

Row | EC50 | Structure (SMILES)
1 | 12 nM | Cc1cccn2c(C(C)(C)NC(=O)[C@@H]3CNCCN3CC3(C)COC3)ncc12 [SC-031, (S)-N-(2-(8-methylimidazo[1,5-a]pyridin-3-yl)propan-2-yl)-1-((3-methyloxetan-3-yl)methyl)piperazine-2-carboxamide]
2 | 0.23 nM | Cc1cccn2c(C(C)(C)NC(=O)[C@@H]3CNCCN3C3CCC(F)(F)CC3)ncc12 [SC-032, (S)-1-(4,4-difluorocyclohexyl)-N-(2-(8-methylimidazo[1,5-a]pyridin-3-yl)propan-2-yl)piperazine-2-carboxamide]
3 | 0.38 nM | Cc1cccn2c(C(C)(C)NC(=O)[C@@H]3CNCCN3CC3CCC3)ncc12 [SC-033, (S)-1-(cyclobutylmethyl)-N-(2-(8-methylimidazo[1,5-a]pyridin-3-yl)propan-2-yl)piperazine-2-carboxamide]
4 | 0.25 nM | Cc1cccn2c(C(C)(C)NC(=O)[C@@H]3CNCCN3CC(C)C)ncc12 [SC-034, (S)-1-isobutyl-N-(2-(8-methylimidazo[1,5-a]pyridin-3-yl)propan-2-yl)piperazine-2-carboxamide]
5 | 0.35 nM | Cc1cccn2c(C(C)(C)NC(=O)[C@@H]3CNCCN3C(C)C)ncc12 [SC-035, (S)-1-isopropyl-N-(2-(8-methylimidazo[1,5-a]pyridin-3-yl)propan-2-yl)piperazine-2-carboxamide]
6 | 0.09 nM | Cc1cccn2c(C(C)(C)NC(=O)[C@@H]3CNCCN3Cc3ccnc(C(F)(F)F)c3)ncc12 [SC-036, (S)-N-(2-(8-methylimidazo[1,5-a]pyridin-3-yl)propan-2-yl)-1-((2-(trifluoromethyl)pyridin-4-yl)methyl)piperazine-2-carboxamide]
7 | 1.7 nM | Cc1cccn2c(C(C)(C)NC(=O)[C@@H]3CNCCN3CC3(C)CCOCC3)ncc12 [SC-037, (S)-N-(2-(8-methylimidazo[1,5-a]pyridin-3-yl)propan-2-yl)-1-((4-methyltetrahydro-2H-pyran-4-yl)methyl)piperazine-2-carboxamide]
8 | 0.6 nM | Cc1cccn2c(C(C)(C)NC(=O)[C@@H]3CNCCN3Cc3cnc(C(F)(F)F)nc3)ncc12 [SC-038, (S)-N-(2-(8-methylimidazo[1,5-a]pyridin-3-yl)propan-2-yl)-1-((2-(trifluoromethyl)pyrimidin-5-yl)methyl)piperazine-2-carboxamide]
9 | 1.4 nM | COCC(C)(C)CN1CCNC[C@H]1C(=O)NC(C)(C)c1ncc2c(C)cccn12 [SC-039, (S)-1-(3-methoxy-2,2-dimethylpropyl)-N-(2-(8-methylimidazo[1,5-a]pyridin-3-yl)propan-2-yl)piperazine-2-carboxamide]
10 | 0.39 nM | Cc1cccc2c(C(C)(C)NC(=O)[C@@H]3CNCCN3C(C)C)n[nH]c12 [SC-040, (S)-1-isopropyl-N-(2-(7-methyl-1H-indazol-3-yl)propan-2-yl)piperazine-2-carboxamide]
11 | 0.22 nM | CCN1CCNC[C@H]1C(=O)NC(C)(C)c1n[nH]c2c(C)cccc12 [SC-041, (S)-1-ethyl-N-(2-(7-methyl-1H-indazol-3-yl)propan-2-yl)piperazine-2-carboxamide]
12 | 1.3 nM | Cc1cccn2c(C(C)(C)NC(=O)[C@@H]3CNCCN3CC3COC3)ncc12 [SC-042, (S)-N-(2-(8-methylimidazo[1,5-a]pyridin-3-yl)propan-2-yl)-1-(oxetan-3-ylmethyl)piperazine-2-carboxamide]
13 | 350 nM | Cc1cccn2c(C(C)(C)NC(=O)[C@@H]3CN(C)CCN3)ncc12 [SC-043, (S)-4-methyl-N-(2-(8-methylimidazo[1,5-a]pyridin-3-yl)propan-2-yl)piperazine-2-carboxamide]
14 | 6.1 nM | Cc1cccn2c(C(C)(C)NC(=O)[C@@H]3CN(C)CCN3Cc3cnn(C)c3)ncc12 [SC-044, (S)-4-methyl-1-((1-methyl-1H-pyrazol-4-yl)methyl)-N-(2-(8-methylimidazo[1,5-a]pyridin-3-yl)propan-2-yl)piperazine-2-carboxamide]
15 | 1.4 nM | Cc1cccn2c(C(C)(C)NC(=O)[C@@H]3CN(C)CCN3CC(F)(F)F)ncc12 [SC-045, (S)-4-methyl-N-(2-(8-methylimidazo[1,5-a]pyridin-3-yl)propan-2-yl)-1-(2,2,2-trifluoroethyl)piperazine-2-carboxamide]
16 | 2.8 nM | Cc1cccn2c(C(C)(C)NC(=O)[C@@H]3CN(C)CCN3C)ncc12 [SC-046, (S)-1,4-dimethyl-N-(2-(8-methylimidazo[1,5-a]pyridin-3-yl)propan-2-yl)piperazine-2-carboxamide]

Row | EC50 | Structure (SMILES)
17 | 0.45 nM | Cc1cccn2c(C(C)(C)NC(=O)[C@@H]3CN(C)CCN3CC3CCOCC3)ncc12 [SC-047, (S)-4-methyl-N-(2-(8-methylimidazo[1,5-a]pyridin-3-yl)propan-2-yl)-1-((tetrahydro-2H-pyran-4-yl)methyl)piperazine-2-carboxamide]
18 | 9.2 nM | Cc1cccn2c(C(C)(C)NC(=O)[C@@H]3CN(C)CCN3CC3COC3)ncc12 [SC-048, (S)-4-methyl-N-(2-(8-methylimidazo[1,5-a]pyridin-3-yl)propan-2-yl)-1-(oxetan-3-ylmethyl)piperazine-2-carboxamide]
19 | 3300 nM | Cc1cccn2c(C(C)(C)NC(=O)[C@@H]3CN(CC(F)(F)F)CCN3)ncc12 [SC-049, (S)-N-(2-(8-methylimidazo[1,5-a]pyridin-3-yl)propan-2-yl)-4-(2,2,2-trifluoroethyl)piperazine-2-carboxamide]
20 | 8200 nM | Cc1cccn2c(C(C)(C)NC(=O)[C@@H]3CN(CC(F)F)CCN3)ncc12 [SC-050, (S)-4-(2,2-difluoroethyl)-N-(2-(8-methylimidazo[1,5-a]pyridin-3-yl)propan-2-yl)piperazine-2-carboxamide]
21 | 990 nM | COCCN1CCN[C@H](C(=O)NC(C)(C)c2ncc3c(C)cccn23)C1 [SC-051, (S)-4-(2-methoxyethyl)-N-(2-(8-methylimidazo[1,5-a]pyridin-3-yl)propan-2-yl)piperazine-2-carboxamide]
22 | 22 nM | Cc1cccn2c(C(C)(C)NC(=O)[C@@H]3CN(C(C)C)CCN3)ncc12 [SC-052, (S)-4-isopropyl-N-(2-(8-methylimidazo[1,5-a]pyridin-3-yl)propan-2-yl)piperazine-2-carboxamide]
23 | 520 nM | Cc1cccn2c(C(C)(C)NC(=O)[C@@H]3CN(C4CCC4)CCN3)ncc12 [SC-053, (S)-4-cyclobutyl-N-(2-(8-methylimidazo[1,5-a]pyridin-3-yl)propan-2-yl)piperazine-2-carboxamide]
24 | 17 nM | CCN1CCN[C@H](C(=O)NC(C)(C)c2ncc3c(C)cccn23)C1 [SC-054, (S)-4-ethyl-N-(2-(8-methylimidazo[1,5-a]pyridin-3-yl)propan-2-yl)piperazine-2-carboxamide]
25 | 8400 nM | Cc1cccn2c(C(C)(C)NC(=O)[C@@H]3CN(C4CCC(F)(F)CC4)CCN3)ncc12 [SC-055, (S)-4-(4,4-difluorocyclohexyl)-N-(2-(8-methylimidazo[1,5-a]pyridin-3-yl)propan-2-yl)piperazine-2-carboxamide]
26 | 3000 nM | Cc1cccn2c(C(C)(C)NC(=O)[C@@H]3CN(C4CCOCC4)CCN3)ncc12 [SC-056, (S)-N-(2-(8-methylimidazo[1,5-a]pyridin-3-yl)propan-2-yl)-4-(tetrahydro-2H-pyran-4-yl)piperazine-2-carboxamide]
27 | 20 nM | Cc1cccn2c(C(C)(C)NC(=O)[C@@H]3CN(CC4CCOCC4)CCN3)ncc12 [SC-057, (S)-N-(2-(8-methylimidazo[1,5-a]pyridin-3-yl)propan-2-yl)-4-((tetrahydro-2H-pyran-4-yl)methyl)piperazine-2-carboxamide]
28 | 1700 nM | Cc1cccn2c(C(C)(C)NC(=O)[C@@H]3CN(Cc4ccccc4)CCN3)ncc12 [SC-058, (S)-4-benzyl-N-(2-(8-methylimidazo[1,5-a]pyridin-3-yl)propan-2-yl)piperazine-2-carboxamide]
29 | 130 nM | Cc1cccn2c(C(C)(C)NC(=O)[C@@H]3CN(Cc4ccncc4)CCN3)ncc12 [SC-059, (S)-N-(2-(8-methylimidazo[1,5-a]pyridin-3-yl)propan-2-yl)-4-(pyridin-4-ylmethyl)piperazine-2-carboxamide]
30 | 1500 nM | Cc1cccn2c(C(C)(C)NC(=O)[C@@H]3CN(Cc4ccccn4)CCN3)ncc12 [SC-060, (S)-N-(2-(8-methylimidazo[1,5-a]pyridin-3-yl)propan-2-yl)-4-(pyridin-2-ylmethyl)piperazine-2-carboxamide]
31 | 1700 nM | Cc1cccn2c(C(C)(C)NC(=O)[C@@H]3CN(Cc4cccnc4)CCN3)ncc12 [SC-061, (S)-N-(2-(8-methylimidazo[1,5-a]pyridin-3-yl)propan-2-yl)-4-(pyridin-3-ylmethyl)piperazine-2-carboxamide]
32 | 220 nM | Cc1cccn2c(C(C)(C)NC(=O)[C@@H]3CN(Cc4cnco4)CCN3)ncc12 [SC-062, (S)-N-(2-(8-methylimidazo[1,5-a]pyridin-3-yl)propan-2-yl)-4-(oxazol-5-ylmethyl)piperazine-2-carboxamide]
